Source: patent publication US20100304375A1, “Influenza Virus Genome Replication and Transcription System in Yeast Cells” (UNIVERSITY OF TSUKUBA, priority 2007, published 2010)

Tested on: influenza virus genome replication and transcription in yeast cells
Assay type: cell-based

C[C@@H]1C[C@@H]([C@H](O)CC2CC(=O)NC(=O)C2)C(=O)[C@@H](C)C1 [cycloheximide] was tested, and the “synthesis level of viral RNAs” value was “markedly reduced”.
